Consider 2 compounds from article PMC4882280 (Journal of clinical pharmacology, 2015).

For series [1] the following is noted: postmenopausal volunteers, single oral 25 mg dose; cited from earlier work.
The conditions of series [2]: single oral 25 mg exemestane; for concentration at 24 h: female, human, urine, po, 25 mg, C24 hr (SD), 24-hr urine concentration.
In a further series the test system is UGT2B17. The settings on record: human liver microsomes UGT2B17(*2/*2) versus UGT2B17(*1/*1), P=0.023; cited from earlier work. A general note: Liver microsomes are a subcellular fraction often used to study metabolism.
The conditions of series [3]: for Plasma concentrations at 24 and 72 hours after exemestane administration: lower limit of quantitation 0.2 (exemestane) and 0.1 ng/ml (17-hydroexemestane); for AUC(0-t): AUC0-8, plasma; for AUC(0-inf): AUC0-∞ (SD); for Cmax: Cmax (SD); for Tmax: Tmax (SD).
[4] abbreviates: with beta-glucuronidase, UGT2B17 *1/*1 (n = 8).
[5] abbreviates: with beta-glucuronidase, UGT2B17 *2/*2 (n = 6).
Setting [6] is: without beta-glucuronidase, UGT2B17 *1/*1 (n = 8).
[7] abbreviates: without beta-glucuronidase, UGT2B17 *2/*2 (n = 6).
Where [8] appears, read: plasma, range over subjects, single oral 25 mg exemestane.
[9] abbreviates: female, human, plasma, po, 25 mg, with beta-glucuronidase (total), UGT2B17 *1/*1 (n = 8), single oral 25 mg exemestane.
Where [10] appears, read: female, human, plasma, po, 25 mg, with beta-glucuronidase (total), UGT2B17 *2/*2 (n = 6), single oral 25 mg exemestane.
The mark [11] stands for this setting: female, human, plasma, po, 25 mg, without beta-glucuronidase (free), UGT2B17 *1/*1 (n = 8), single oral 25 mg exemestane.
Where [12] appears, read: female, human, plasma, po, 25 mg, without beta-glucuronidase (free), UGT2B17 *2/*2 (n = 6), single oral 25 mg exemestane.

Read-outs that look alike come from different tables or passages of the source.

Regarding `C=C1C[C@H]2[C@@H]3CC[C@H](O)[C@@]3(C)CC[C@@H]2[C@@]2(C)C=CC(=O)C=C12` [17-hydroexemestane], the “maximal plasma concentrations (Cmax), range in previous studies” value in series [1] was 0.22 to 2.44 ng/mL. Also, the “plasma concentrations over time (AUC), range in previous studies” value in series [1] was 2.46 to 20.89 ng·h/mL. Further, the “C24 hr (SD), 24-hr urine concentration” value was 2.3 (1.2) ng/ml in series [2] (setting [4]); 2.3 ± 1.2 ng/mL in series [2] (with beta-glucuronidase, UGT2B17 *1/*1 (n = 8), listed as 17-HEXE); 0.5 (0.3) ng/ml in series [2] (setting [5]); 0.5 ± 0.3 ng/mL in series [2] (with beta-glucuronidase, UGT2B17 *2/*2 (n = 6), listed as 17-HEXE); 0.4 (0.2) ng/ml in series [2] (setting [6]); 0.4 (0.3) ng/ml in series [2] (setting [7]). In addition, the “lower intrinsic clearance (Vmax/Km)” value in the series with UGT2B17 was 36 fold. The “difference in the AUC of conjugated 17-hydroexemestane between high and poor expressers” value in series [3] (UGT2B17 *1/*1 vs *2/*2, plasma) is around 8 fold. Further, the “AUC, range in our pharmacokinetic study” value in series [3] (setting [8]) lay in the range of 0.7 to 26.9 ng·h/mL. Also, the “Cmax, range in our pharmacokinetic study” value in series [3] (setting [8]) was 0.1 to 2.7 ng/mL. This compound also returned an AUC0-8 in series [3] (plasma, with beta-glucuronidase (+BG), UGT2B17*1/*1 carriers, single oral 25 mg exemestane) of 7.3 ± 2.6 ng·h/mL. Further, the “Plasma concentrations at 24 and 72 hours after exemestane administration” value in series [3] (single oral 25 mg exemestane) is recorded as “below the lowest limit of quantification”.
With `C=C1C[C@@H]2[C@H](CC[C@]3(C)C(=O)CC[C@@H]23)[C@@]2(C)C=CC(=O)C=C12` [Exemestane], the “maximal plasma concentrations (Cmax), range in previous studies” value in series [1] was 3.0 to 16.1 ng/mL. For the same compound, in series [1], the “plasma concentrations over time (AUC), range in previous studies” value was 25.6 to 98.1 ng·h/mL. The concentration at 24 h is 1.7 ± 1 ng/mL in series [2] (setting [4]), 2.1 ± 1.6 ng/mL in series [2] (setting [5]), 1.9 ng/mL in series [2] (setting [6]) and 2.5 ng/mL in series [2] (setting [7]). In addition, the “C24 hr (SD), 24-hr urine concentration” value in series [2] (setting [4]) is recorded as 1.7 (1.0) ng/ml; in series [2] (setting [5]) it was 2.1 (1.6) ng/ml. This compound also returned an AUC in series [3] (female, human, plasma, po, 25 mg) of 9.2 to 40.6 ng·h/mL. In addition, the AUC(0-t) in series [3] (female, human, plasma, po, 25 mg, with beta-glucuronidase (+BG), UGT2B17*1/*1 carriers, single oral 25 mg exemestane) was found to be 16.2 ± 3.5 ng·h/mL; in series [3] (female, human, plasma, po, 25 mg, with beta-glucuronidase (+BG), UGT2B17*2/*2 carriers, single oral 25 mg exemestane) it was 15.5 ± 4.2 ng·h/mL. The AUC(0-inf) was 19.8 ng·h/mL in series [3] (setting [9]), 19 ng·h/mL in series [3] (setting [10]), 22.7 ng·h/mL in series [3] (setting [11]) and 19.7 ng·h/mL in series [3] (setting [12]). Besides, the Cmax in series [3] (setting [9]) is 4.4 ng/mL; in series [3] (setting [10]), 5.2 ng/mL; in series [3] (setting [11]) it was 5.6 ng/mL; in series [3] (setting [12]), 5.3 ng/mL. The Tmax in series [3] (setting [9]) was found to be 3.1 h; in series [3] (setting [10]), 1.9 h; in series [3] (setting [11]), 3.1 h; in series [3] (setting [12]), 1.7 h. For the same compound, the “Plasma concentrations at 24 and 72 hours after exemestane administration” value in series [3] (single oral 25 mg exemestane) is “below the lowest limit of quantification”.

By AUC is commonly meant concentration integrated over time. A high value points to more exposure.
